Results taken from patent publication US20230025843A1, “MAMMAL KINASE INHIBITORS TO PROMOTE IN VITRO EMBRYOGENESIS INDUCTION OF PLANTS” (CONSEJO SUPERIOR DE INVESTIGACIONES CIENTIFICAS (CSIC), priority 2019, published 2023).
Where “and” joins values, the source holds several entries; their conditions need not be identical. Equal values may be shown once.

Assays:
Assay type in all cases: cell-based
[1] = test system: B. napus microspore cultures; assay: Microspore embryogenesis induction in isolated microspore culture (proembryos at 4 days), liquid medium; settings: for concentrations that provided an improvement of embryogenesis initiation yield: B. napus microspore cultures, proembryos at 4 days vs control, 3-4 concentrations tested; for increase in the percentage of proembryos: 4 days, vs control cultures normalized to 100%
Description: B. napus L. (rapeseed) cv. ‘Topas’ line DH407 plants were used as donor plants. Rapeseed seeds were germinated and grew under controlled conditions (relative humidity 60%, 15° C. under long-day photoperiod 16 h light and 8 h dark at 10° C.) in a growth chamber in pots containing a mixture of organic substrate and vermiculite (2/1, v/v).
Flower buds containing vacuolated microspores, the most responsive stage for microspore induction, were isolated for microspore culture as previously described (Prem et al., 2012 BMC Plant Biology 12, 127). The selected buds were surface-sterilized in 5.0% (v/v) commercial bleach (5% active chlorine) for 20 min and then rinsed 6-7 times with sterile distilled water. Ten to 15 buds were crushed using a cold mortar and pestle in 5 ml of cold NLN-13 medium containing 13% sucrose (w/v). The suspension was filtered through 48 μm nylon mesh and the filtrate collected in 15-ml falcon centrifuge tubes. The crushed buds were rinsed with 5 ml NLN-13 to make up the volume to 10 ml and the filtrate was then centrifuged at 1100 rpm for 5 min at 4° C. The pellet was re-suspended in 10 ml of cold NLN-13 and centrifuged as mentioned above. This process was repeated three times for washing of the microspores. The final pellet was suspended in the NLN-13, and the cell density was adjusted to 10,000 cells per ml. The cell suspension was then poured into 90-mm Petri dishes (10 ml per Petri dish) and cultured in darkness. For embryogenesis induction, microspore cultures were subjected to an in vitro stress treatment of 32° C. for 15 days. In response to the inductive treatment, responsive microspores divide and produce multicellular structures or proembryos, still confined within the microspore wall (exine). Such structures are considered to be the first sign of embryogenesis initiation; they can be found after 4-6 days in culture. When globular/heart shaped embryos were observed (around 20 days), cultures were shifted to 25° C. on a gyratory shaker at 60 rpm until complete development and maturation of the embryos was observed (FIG. 1), normally around 30 days in culture.
The compounds were added to the microspore liquid culture media by using stock solutions of 10 mM in DMSO. Appropriate volumes of stock solutions of the drugs were added to the culture media to get the selected working concentrations of the inhibitors, keeping DMSO concentration below 0.2%. • In B. napus microspore cultures: 4-benzyl-2-methyl-1,2,4-thiadozilidine-3,5-dione (TDZD8), 5-(2-Morpholinethylimino)-2,3-diphenyl-2,5-dihydro-1,2,4-thiadiazole (VP3.15), 3-acetyl-4-(1-methyl-1H-indol-3-yl)-1H-pirrol-2,5-dione (VP3.36), 4-hydroxy-1-ethyl-N′-palmitoyl-2-oxo-1,2-dihydroquinoline-3-carbohydrazide (VP0.7), N-(6-methylbenzothiazole-2-yl)-4-morpholinobenzamide (JZ1.3), N-(6-fluorobenzothiazole-2-yl)-4-morpholinobenzamide, (JZ1.6) and N-(6-bromobenzothiazole-2-yl)-4-morpholinobenzamide (JZ1.24). and (E,Z)-3-(morpholinoimino)indolin-2-one (IGS4.75) were tested at 3-4 different concentrations, ranging from 0.5 to 5 μM. • In H. vulgare microspore cultures: 4-benzyl-2-methyl-1,2,4-thiadozilidine-3,5-dione (TDZD8) and N-(6-bromobenzothiazole-2-yl)-4-morpholinobenzamide (JZ1.24) inhibitors at the selected concentrations (2.5 μM and […], respectively) were tested.
The compounds were added from culture initiation and their effect on embryogenesis efficiency was assessed. Several plates of the same cultures were kept without the inhibitors, as controls.
Embryogenesis induction was quantified in control and treated-cultures by the number of proembryos formed (considered the first sign of embryogenesis initiation), as previously described, and by the number of embryos produced after 40 days. Proembryos were easily identified under inverted microscope in 4 day-culture plates as rounded multicellular structures with higher size and density than microspores, still surrounded by the exine (special microspore wall). […]

[2] = test system: H. vulgare microspore cultures; assay: Microspore embryogenesis induction in isolated microspore culture (proembryos at 4 days, embryos at 40 days), liquid medium; settings: for increase in proembryo formation: 4 days; for increment of total number of embryos produced per plate: 40 days, vs control, selected concentrations (2.5 μM TDZD8, 5 μM JZ1.24)
Description: H. vulgare L. cv. Igri plants were used as donor plants. Seeds were vernalized in soil for one month at 4° C., and then transferred for one month in a plant growth chamber at 18° C. for germination and growth. Finally, plants were transferred to a greenhouse under 18° C. temperature.
Spikes containing microspores at the stage of vacuolated microspore, the most responsive stage for embryogenesis induction, were collected and surface sterilized by immersion in 5% bleach for 20 min, followed by 4 washes with sterile distilled water. Isolated microspore culture was settled as previously described (Rodŕiguez-Serrano et al., 2012, Journal of Experimental Botany 63(5), 2007-2024). The sterilized spikes were pre-treated at 4° C. for 21-24 days as stress treatment to induce microspore embryogenesis. Microspore were isolated blending spikes in 20 ml of pre-cooled 0.4 M mannitol at 4° C., using a Waring Blender pre-cooled in a refrigerator at −20° C., and the extract was filtered through a 100 μm nylon mesh into a beaker pre-cooled at −20° C. The collected microspore suspension was transferred into a 50 ml tube and centrifuged at 800 rpm for 10 min at 4° C. After removing the supernatant, the pellet was resuspended in 4 ml of pre-cooled 0.55 M maltose and transferred in 15 ml falcon tube. 1.5 ml of 0.4 M mannitol solution were cautiously added unmixed. After gradient centrifugation at 800 rpm for 10 min at 4° C., the interphase band consisting of an almost pure population of vacuolated microspores was resuspended in 0.4M mannitol solution giving a final volume of 10 ml. After counting cells in the Neubauer chamber, the pelleted microspores were diluted in an appropriate volume of KBP medium to obtain a cell density of 1.1×10^5 cells per ml, and plated in 30 mm Petri dishes, at a volume of 1 ml per plate. Then, microspore cultures were incubated at 25° C. in the dark, and microspores reprogrammed and produced multicellular structures/proembryos that can be found after 4-6 days in culture, as the first sign of embryogenesis initiation. Proembryos further developed and produced coleoptylar and mature embryos (FIG. 2), which were observed after 30 days.
The compounds were added to the microspore liquid culture media by using stock solutions of 10 mM in DMSO. […]
The compounds were added from culture initiation and their effect on embryogenesis efficiency was assessed. […]
Embryogenesis induction was quantified in control and treated-cultures by the number of proembryos formed (considered the first sign of embryogenesis initiation), as previously described, and by the number of embryos produced after 40 days. […]

[3] = test system: proembryos of B. napus microspore cultures; assay: DAPI staining of proembryos, fluorescence microscopy of squash preparations; settings: 4 days in culture
Description: In order to evaluate whether proembryo structures of treated cultures, identified under the inverted microscope for quantification, were actually dividing microspores, similar to the same structures in control cultures, a simply staining technique was performed to visualize nuclei inside proembryos. Samples from control and treated-cultures of 4 days, containing proembryos, were stained with 10 μg/mL 4′,6-diamidine-2-phenyl indole dihydrochloride (DAPI). Squash preparations were analysed under fluorescence microscopy using UV excitation for observing nuclei.

Structure (SMILES)	concentrations that provided an improvement of embryogenesis initiation yield [1]	also measured
O=C1Nc2ccccc2C1=NN1CCOCC1 [IGS4.75, (E,Z)-3-(morpholinoimino)indolin-2-one]	5 µM	–
Cc1ccc2nc(NC(=O)c3ccc(N4CCOCC4)cc3)sc2c1 [JZ1.3, N-(6-methylbenzothiazole-2-yl)-4-morpholinobenzamide]	5 µM	–
O=C(Nc1nc2ccc(F)cc2s1)c1ccc(N2CCOCC2)cc1 [JZ1.6, N-(6-fluorobenzothiazole-2-yl)-4-morpholinobenzamide]	1 µM	–
O=C(Nc1nc2ccc(Br)cc2s1)c1ccc(N2CCOCC2)cc1 [JZ1.24, N-(6-bromobenzothiazole-2-yl)-4-morpholinobenzamide]	2.5 µM	increase in proembryo formation ([2]; 5 μM): 47%; increment of total number of embryos produced per plate [2]: 22%; increase in the percentage of proembryos ([1]; 2.5 μM): 27.5%
Cn1sc(=O)n(Cc2ccccc2)c1=O [TDZD8, 4-benzyl-2-methyl-1,2,4-thiadozilidine-3,5-dione, reference compound]	0.5 µM and 1 µM	nuclei in proembryos (DAPI staining) [3]: proembryos contain several nuclei; increase in proembryo formation ([2]; 2.5 μM): 27%; increment of total number of embryos produced per plate [2]: 15%; increase in the percentage of proembryos ([1]; 0.5 μM): 20%
CCCCCCCCCCCCCCCC(=O)NNC(=O)c1c(O)c2ccccc2n(CC)c1=O [VP0.7, 4-hydroxy-1-ethyl-N′-palmitoyl-2-oxo-1,2-dihydroquinoline-3-carbohydrazide]	5 µM	–
c1ccc(-c2nc(=NCCN3CCOCC3)sn2-c2ccccc2)cc1 [VP3.15, 5-(2-Morpholinethylimino)-2,3-diphenyl-2,5-dihydro-1,2,4-thiadiazole]	2.5 µM	–
CC(=O)C1=C(c2cn(C)c3ccccc23)C(=O)NC1=O [VP3.36, 3-acetyl-4-(1-methyl-1H-indol-3-yl)-1H-pirrol-2,5-dione]	2.5 µM	–
